Where “and” joins values, the source holds several entries; their conditions need not be identical. Equal values may be shown once.
Test system: 521955-158-R2-J5-PDC complex spheroid growth
Assay: Anticancer human tumor 521955-158-R2-J5-PDC patient-derived pancreatic carcinoma cell line growth inhibition [AhR]
Settings: for viability, T/C: stronger effect = lower value
Procedure, shortened: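 Spheroids combined tumor cells with HUVEC endothelial cells and human MSCs as stroma. AhR antagonists were paired with standard or investigational drugs, each dosed in half-log steps down from near clinical Cmax, or from 10 microM where Cmax was unknown.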

[1] = curve of first compound, second compound 0.1 µM
[2] = curve of first compound, second compound 0.316 µM
[3] = curve of first compound, second compound 1 µM
[4] = curve of first compound, second compound 3.16 µM
[5] = curve of first compound, second compound 10 µM
[6] = second compound 0.1 µM, first compound 0.0316 µM
[7] = second compound 0.1 µM, first compound 0.1 µM
[8] = second compound 0.1 µM, first compound 0.316 µM
[9] = second compound 0.1 µM, first compound 1 µM
[10] = second compound 0.1 µM, first compound 3.16 µM
[11] = second compound 0.1 µM, first compound 10 µM
[12] = second compound 0.316 µM, first compound 0.0316 µM
[13] = second compound 0.316 µM, first compound 0.1 µM
[14] = second compound 0.316 µM, first compound 0.316 µM
[15] = second compound 0.316 µM, first compound 1 µM
[16] = second compound 0.316 µM, first compound 3.16 µM
[17] = second compound 0.316 µM, first compound 10 µM
[18] = second compound 1 µM, first compound 0.0316 µM
[19] = second compound 1 µM, first compound 0.1 µM
[20] = second compound 1 µM, first compound 0.316 µM
[21] = second compound 1 µM, first compound 1 µM
[22] = second compound 1 µM, first compound 3.16 µM
[23] = second compound 1 µM, first compound 10 µM
[24] = second compound 3.16 µM, first compound 0.0316 µM
[25] = second compound 3.16 µM, first compound 0.1 µM
[26] = second compound 3.16 µM, first compound 0.316 µM
[27] = second compound 3.16 µM, first compound 1 µM
[28] = second compound 3.16 µM, first compound 3.16 µM
[29] = second compound 3.16 µM, first compound 10 µM
[30] = second compound 10 µM, first compound 0.0316 µM
[31] = second compound 10 µM, first compound 0.1 µM
[32] = second compound 10 µM, first compound 0.316 µM
[33] = second compound 10 µM, first compound 1 µM
[34] = second compound 10 µM, first compound 3.16 µM
[35] = second compound 10 µM, first compound 10 µM
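Wherever viability, T/C is given: spheroids mix tumor cells with HUVEC endothelium and human MSC stroma; luminescence taken as viability surrogate after a week of drug exposure.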

Compound | IC50 [1] | IC50 [2] | IC50 [3] | IC50 [4] | IC50 [5] | viability, T/C [6] | viability, T/C [7] | viability, T/C [8] | viability, T/C [9] | viability, T/C [10] | viability, T/C [11] | viability, T/C [12] | viability, T/C [13] | viability, T/C [14] | viability, T/C [18] | viability, T/C [19] | viability, T/C [24] | viability, T/C [25] | viability, T/C [30] | viability, T/C [31] | further results
Nc1ncn(C2CC(O)C(CO)O2)c(=O)n1 (configuration not stated) |  |  |  |  |  |  |  |  |  |  |  |  |  |  |  |  |  |  |  |  | viability, T/C (compound 0.00316 µM): 92.7% and 87.2% and 101%; viability, T/C (compound 0.01 µM): 90.8% and 72.2% and 80.4%; viability, T/C (compound 0.0316 µM): 88.8% and 87.9% and 88.9%; viability, T/C (compound 0.1 µM): 73% and 52.6% and 68.5%; viability, T/C (compound 0.316 µM): 65.5% and 53.7% and 63%; viability, T/C (compound 1 µM): 48.3% and 38.4% and 39.5%; IC50 (curve of compound): 907 nM and 158 nM and 564 nM
O=C(c1cc(Cc2n[nH]c(=O)c3ccccc23)ccc1F)N1CCN(C(=O)C2CC2)CC1 + Cc1ccccc1N=Nc1ccc(NC(=O)c2ccnn2C)c(C)c1 | > 10000 nM | > 10000 nM | > 10000 nM | > 10000 nM | > 10000 nM | 101% | 83.6% | 98.5% | 104% | 73.6% | 63.1% | 90% | 85.7% | 101% | 134% | 107% | 124% | 109% | 141% | 155% | viability, T/C [15]: 88.6%; viability, T/C [16]: 80.8%; viability, T/C [17]: 77.8%; viability, T/C [20]: 136%; viability, T/C [21]: 89.8%; viability, T/C [22]: 93%; viability, T/C [23]: 63.6%; viability, T/C [26]: 129%; viability, T/C [27]: 106%; viability, T/C [28]: 118%; viability, T/C [29]: 98%; viability, T/C [32]: 148%; viability, T/C [33]: 131%; viability, T/C [34]: 113%; viability, T/C [35]: 103%

Further lines, with some results ahead:

IC50 [1] | IC50 [2] | IC50 [3] | IC50 [4] | IC50 [5] | Compound | viability, T/C [6] | viability, T/C [7] | viability, T/C [8] | viability, T/C [9] | viability, T/C [10] | viability, T/C [11] | viability, T/C [12] | viability, T/C [13] | viability, T/C [14] | viability, T/C [18] | viability, T/C [19] | viability, T/C [24] | viability, T/C [25] | viability, T/C [30] | viability, T/C [31] | further results
< 31.6 nM | < 31.6 nM | < 31.6 nM | 72.6 nM | 108 nM | COc1cccc2c1C(=O)c1c(O)c3c(c(O)c1C2=O)CC(O)(C(=O)CO)CC3OC1CC(N)C(O)C(C)O1 (configuration not stated) + Cc1cncc(-c2nc(NCCc3c[nH]c4ccccc34)c3ncn(C(C)C)c3n2)c1 | 53.6% | 35.6% | 36.2% | 2.01% | 6.72% | 11.6% | 49% | 35% | 39.2% | 51.2% | 30.6% | 64.2% | 37.3% | 64.2% | 48.4% | viability, T/C [15]: 0.95%; viability, T/C [16]: 6.23%; viability, T/C [17]: 14.8%; viability, T/C [20]: 46.8%; viability, T/C [21]: 1.72%; viability, T/C [22]: 5.39%; viability, T/C [23]: 16.6%; viability, T/C [26]: 41.3%; viability, T/C [27]: 2.7%; viability, T/C [28]: 8.4%; viability, T/C [29]: 12.2%; viability, T/C [32]: 29%; viability, T/C [33]: 0.47%; viability, T/C [34]: 3.33%; viability, T/C [35]: 9.06%
1080 nM | 1010 nM | 980 nM | 1050 nM | 1810 nM | COc1cc(C2c3cc4c(cc3C(OC3OC5COC(C)OC5C(O)C3O)C3COC(=O)C23)OCO4)cc(OC)c1O (configuration not stated) + Cc1cncc(-c2nc(NCCc3c[nH]c4ccccc34)c3ncn(C(C)C)c3n2)c1 | 102% | 107% | 85% | 52.6% | 29% | 25.8% | 107% | 101% | 93.2% | 106% | 111% | 112% | 126% | 179% | 126% | viability, T/C [15]: 49.1%; viability, T/C [16]: 27.4%; viability, T/C [17]: 19.2%; viability, T/C [20]: 86.5%; viability, T/C [21]: 50.2%; viability, T/C [22]: 27.9%; viability, T/C [23]: 23.6%; viability, T/C [26]: 118%; viability, T/C [27]: 50.9%; viability, T/C [28]: 34.4%; viability, T/C [29]: 26.2%; viability, T/C [32]: 118%; viability, T/C [33]: 56.9%; viability, T/C [34]: 31.6%; viability, T/C [35]: 25.1%
> 100 nM | > 100 nM | > 100 nM | > 100 nM | > 100 nM | Cn1ncnc1C1c2n[nH]c(=O)c3cc(F)cc(c23)NC1c1ccc(F)cc1 (configuration not stated) + Cc1ccccc1N=Nc1ccc(NC(=O)c2ccnn2C)c(C)c1 | 105% | 75.4% |  |  |  |  | 97.8% | 89.1% |  | 118% | 115% | 128% | 128% | 143% | 141% | viability, T/C (second compound 0.1 µM, first compound 0.000316 µM): 110%; viability, T/C (second compound 0.1 µM, first compound 0.001 µM): 115%; viability, T/C (second compound 0.1 µM, first compound 0.00316 µM): 108%; viability, T/C (second compound 0.1 µM, first compound 0.01 µM): 103%; viability, T/C (second compound 0.316 µM, first compound 0.000316 µM): 111%; viability, T/C (second compound 0.316 µM, first compound 0.001 µM): 119%; viability, T/C (second compound 0.316 µM, first compound 0.00316 µM): 108%; viability, T/C (second compound 0.316 µM, first compound 0.01 µM): 98.5%; viability, T/C (second compound 1 µM, first compound 0.000316 µM): 111%; viability, T/C (second compound 1 µM, first compound 0.001 µM): 107%; viability, T/C (second compound 1 µM, first compound 0.00316 µM): 138%; viability, T/C (second compound 1 µM, first compound 0.01 µM): 118%; viability, T/C (second compound 3.16 µM, first compound 0.000316 µM): 140%; viability, T/C (second compound 3.16 µM, first compound 0.001 µM): 150%; viability, T/C (second compound 3.16 µM, first compound 0.00316 µM): 142%; viability, T/C (second compound 3.16 µM, first compound 0.01 µM): 154%; viability, T/C (second compound 10 µM, first compound 0.000316 µM): 158%; viability, T/C (second compound 10 µM, first compound 0.001 µM): 148%; viability, T/C (second compound 10 µM, first compound 0.00316 µM): 158%; viability, T/C (second compound 10 µM, first compound 0.01 µM): 146%

Source: PubChem BioAssay AID1918998 (Molecular Pharmacology Branch, DTP, NCI, 2023)
